Here are results for 18 compounds from patent US20090156642A1, “5-Membered heterocyclic compound” (Takeda Pharmaceutical Company Limited, priority 2007, published 2009).

Structures can show the parent of a compound that is named as a salt.

The experiment deals with T1, proton, potassium-adenosine triphosphatase (H+,K+-ATPase) (Sus scrofa, UniProt P19156).
T1 construct: a gastric mucous membrane microsomal fraction was prepared from the stomach of swine
T1 sequence (P19156 2-1034): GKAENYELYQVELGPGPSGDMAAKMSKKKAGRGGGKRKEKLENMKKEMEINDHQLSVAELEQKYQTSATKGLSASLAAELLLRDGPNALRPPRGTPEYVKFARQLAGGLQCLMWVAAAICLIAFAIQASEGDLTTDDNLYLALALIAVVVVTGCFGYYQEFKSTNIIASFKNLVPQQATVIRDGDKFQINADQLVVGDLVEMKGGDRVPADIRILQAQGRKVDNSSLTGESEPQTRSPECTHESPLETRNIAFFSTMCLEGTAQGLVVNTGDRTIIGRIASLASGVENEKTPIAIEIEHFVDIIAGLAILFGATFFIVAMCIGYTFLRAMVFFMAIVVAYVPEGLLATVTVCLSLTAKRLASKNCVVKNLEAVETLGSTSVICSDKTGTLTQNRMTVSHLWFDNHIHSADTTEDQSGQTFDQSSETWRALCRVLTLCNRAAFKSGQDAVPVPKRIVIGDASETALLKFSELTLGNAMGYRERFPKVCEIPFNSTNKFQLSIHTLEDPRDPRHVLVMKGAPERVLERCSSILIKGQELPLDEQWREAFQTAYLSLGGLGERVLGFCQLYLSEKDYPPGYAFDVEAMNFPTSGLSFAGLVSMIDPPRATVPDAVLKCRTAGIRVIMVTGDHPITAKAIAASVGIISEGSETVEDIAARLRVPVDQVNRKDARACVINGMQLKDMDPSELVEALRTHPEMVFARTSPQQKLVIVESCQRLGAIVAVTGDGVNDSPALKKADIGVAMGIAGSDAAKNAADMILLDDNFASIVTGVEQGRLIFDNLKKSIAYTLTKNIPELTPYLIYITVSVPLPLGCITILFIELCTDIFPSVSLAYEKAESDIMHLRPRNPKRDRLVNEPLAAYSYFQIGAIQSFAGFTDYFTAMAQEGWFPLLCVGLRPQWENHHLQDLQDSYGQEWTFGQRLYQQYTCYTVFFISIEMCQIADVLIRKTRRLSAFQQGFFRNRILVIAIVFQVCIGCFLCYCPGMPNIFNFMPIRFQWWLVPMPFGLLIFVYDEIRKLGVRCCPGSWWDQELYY
T1 sequence (P18434 whole entry partner): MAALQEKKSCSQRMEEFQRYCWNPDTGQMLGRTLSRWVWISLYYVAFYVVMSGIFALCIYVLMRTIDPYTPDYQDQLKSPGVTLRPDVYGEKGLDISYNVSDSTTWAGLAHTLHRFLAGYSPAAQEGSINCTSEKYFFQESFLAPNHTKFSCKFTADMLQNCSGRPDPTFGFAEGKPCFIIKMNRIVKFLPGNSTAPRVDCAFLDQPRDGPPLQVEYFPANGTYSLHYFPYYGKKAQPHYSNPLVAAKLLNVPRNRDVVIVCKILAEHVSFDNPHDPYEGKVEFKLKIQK
Description: Proton potassium-adenosine triphosphatase (H+,K+-ATPase) inhibitory activity test. In kind it is biochemical. The settings on record: swine gastric mucous membrane microsomal fraction, pH 6.5, 37° C., 10 mmol/L potassium chloride. As for the experimental part: Proton Potassium-Adenosine Triphosphatase (H^+,K^+-ATPase) Inhibitory Activity Test
According to the method [Biochim. Biophys. Acta, 728, 31 (1983)] of Wallmark et al., a gastric mucous membrane microsomal fraction was prepared from the stomach of swine. First, the stomach was removed, washed with tap water, and immersed in 3 mol/L brine, and the surface of the mucous membrane was wiped with a paper towel. The gastric mucous membrane was detached, chopped, and homogenized in a 0.25 mol/L saccharose solution (pH 6.8) containing 1 mmol/L EDTA and 10 mmol/L tris-hydrochloric acid using polytron (Kinematica). The obtained homogenate was centrifuged at 20,000×g for 30 min and the supernatant was centrifuged at 100,000×g for 90 min. The precipitate was suspended in 0.25 mol/L saccharose solution, the suspension was superimposed on a 0.25 mol/L saccharose solution containing 7.5% Ficoll, and centrifuged at 100,000×g for 5 hr. The fraction containing the interface between the both layers was recovered, and centrifugally washed with 0.25 mol/L saccharose solution.
The obtained microsomal fraction was used as a proton, potassium-adenosine triphosphatase standard product.
To 40 μL of a 50 mmol/L HEPES-tris buffer (5 mmol/L magnesium chloride, 10 mmol/L potassium chloride, 10 μmol/L valinomycin, pH=6.5) containing 2.5 μg/mL (based on the protein concentration) of the enzyme standard product was added a test compound (5 μL) dissolved in a 10% aqueous dimethyl sulfoxide solution, and the mixture was incubated at 37° C. for 30 min. The enzyme reaction was started by adding 5 μL of a 2 mmol/L adenosine triphosphate tris salt solution (50 mmol/L HEPES-tris buffer (5 mmol/L magnesium chloride, pH 6.5)). The enzyme reaction was carried out at 37° C. for 20 min, and 15 μL of a malachite green solution (0.12% malachite green solution in sulfuric acid (2.5 mol/L), 7.5% ammonium molybdate and 11% Tween 20 were mixed at a ratio of 100:25:2) was added to quench the reaction. After allowing to stand at room temperature for 15 min, the resulting reaction product of inorganic phosphorus with malachite green was colorimetrically determined at a wavelength of 610 nm. In addition, the amount of the inorganic phosphoric acid in the reaction solution free of potassium chloride was measured in the same manner, which was subtracted from the inorganic phosphoric acid amount in the presence of potassium chloride to determine the proton, potassium-adenosine triphosphatase activity. The inhibitory rate (%) was determined from the activity value of the control and the activity values of various concentrations of the test compound, and the 50% inhibitory concentration (IC50) of the proton, potassium-adenosine triphosphatase was determined.
For orientation: IC50 means the concentration that inhibits the measured activity by half. As for `CNCc1cc(S(=O)(=O)c2ccc(C)nc2)n(-c2cccc(F)c2F)n1` [Example 99, 1-{1-(2,3-difluorophenyl)-5-[(6-methylpyridin-3-yl)sulfonyl]-1H-pyrazol-3-yl}-N-methylmethanamine], the IC50 was 76 nM.

`CNCc1cc(-c2ccccc2F)c(S(=O)(=O)c2cccc(OC)c2)s1` [Example 4, 1-{4-(2-fluorophenyl)-5-[(3-methoxyphenyl)sulfonyl]-2-thienyl}-N-methylmethanamine fumarate] gave an IC50 of 64 nM.

For `CNCc1nc(-c2ccccc2F)c(S(=O)(=O)c2cccnc2)s1` [Example 56, 1-[4-(2-fluorophenyl)-5-(pyridin-3-ylsulfonyl)-1,3-thiazol-2-yl]-N-methylmethanamine fumarate], 240 nM corresponded to half-maximal inhibition (IC50).

`CNCc1cc(S(=O)(=O)c2cccnc2)n(-c2ccccc2Cl)n1` [Example 87, 1-[1-(2-chlorophenyl)-5-(pyridin-3-ylsulfonyl)-1H-pyrazol-3-yl]-N-methylmethanamine] had an IC50 of 86 nM.

Compound `CNCc1cc(S(=O)(=O)c2cccc(C#N)c2)n(-c2ccccc2Cl)n1` [Example 86, 3-({1-(2-chlorophenyl)-3-[(methylamino)methyl]-1H-pyrazol-5-yl}sulfonyl)benzonitrile hydrochloride] displayed an IC50 of 84 nM.

`CNCc1cc(S(=O)(=O)c2cccnc2)n(-c2cccc(F)c2Cl)n1` [Example 113, 1-[1-(2-chloro-3-fluorophenyl)-5-(pyridin-3-ylsulfonyl)-1H-pyrazol-3-yl]-N-methylmethanamine fumarate] registered an IC50 of 180 nM.

Regarding `CNCc1nc(-c2ccccc2F)c(S(=O)(=O)c2cccc(OC)c2)s1` [Example 13, 1-{4-(2-fluorophenyl)-5-[(3-methoxyphenyl)sulfonyl]-1,3-thiazol-2-yl}-N-methylmethanamine hydrochloride], 46 nM corresponded to half-maximal inhibition (IC50).

Take `CNCc1nc(-c2cccnc2F)c(S(=O)(=O)c2cccnc2)s1` [Example 60, 1-[4-(2-fluoropyridin-3-yl)-5-(pyridin-3-ylsulfonyl)-1,3-thiazol-2-yl]-N-methylmethanamine]: the midpoint of inhibition, the IC50, lay at 310 nM.

As to `CNCc1cc(-c2cccnc2F)c(S(=O)(=O)c2ccccc2)s1` [Example 2, 1-[4-(2-fluoropyridin-3-yl)-5-(phenylsulfonyl)-2-thienyl]-N-methylmethanamine hydrochloride], the IC50 is 32 nM.

The compound `CNCc1cn(S(=O)(=O)c2ccccc2)c(-c2ccccc2F)n1` [Example 67, 1-[2-(2-fluorophenyl)-1-(phenylsulfonyl)-1H-imidazol-4-yl]-N-methylmethanamine fumarate] yielded an IC50 of 28 nM.

On to `CNCc1cc(S(=O)(=O)c2ccccc2)n(-c2cccnc2F)n1` [Example 79, 1-[1-(2-fluoropyridin-3-yl)-5-(phenylsulfonyl)-1H-pyrazol-3-yl]-N-methylmethanamine], for which it took 190 nM to reach half-maximal inhibition (IC50).

`CNCc1cc(-c2ccccc2F)c(S(=O)(=O)c2ccccc2)s1` [Example 19, 1-[4-(2-fluorophenyl)-5-(phenylsulfonyl)thiophen-2-yl]-N-methylmethanamine hydrochloride] yielded an IC50 of 88 nM.

`CNCc1cc(S(=O)(=O)c2cccnc2)n(-c2ccccc2F)n1` [Example 81, 1-[1-(2-fluorophenyl)-5-(pyridin-3-ylsulfonyl)-1H-pyrazol-3-yl]-N-methylmethanamine] yielded an IC50 of 130 nM.

`CNCc1cc(S(=O)(=O)c2ccc(C)nc2)n(-c2ccccc2Cl)n1` [Example 89, 1-{1-(2-chlorophenyl)-5-[(6-methylpyridin-3-yl)sulfonyl]-1H-pyrazol-3-yl}-N-methylmethanamine] returned an IC50 of 110 nM.

On to `CNCc1cc(-c2cccnc2F)c(S(=O)(=O)c2cccnc2)s1` [Example 48, 1-[4-(2-fluoropyridin-3-yl)-5-(pyridin-3-ylsulfonyl)thiophen-2-yl]-N-methylmethanamine], for which 240 nM corresponded to half-maximal inhibition (IC50).

With `CNCc1cc(S(=O)(=O)c2cccnc2)n(-c2cccc(F)c2F)n1` [Example 98, 1-[1-(2,3-difluorophenyl)-5-(pyridin-3-ylsulfonyl)-1H-pyrazol-3-yl]-N-methylmethanamine], the IC50 was found to be 220 nM.

`CNCc1cn(S(=O)(=O)c2cccs2)c(-c2ccccc2F)n1` [Example 18, 1-[2-(2-fluorophenyl)-1-(2-thienylsulfonyl)-1H-imidazol-4-yl]-N-methylmethanamine fumarate] came in with an IC50 of 64 nM.

Compound `CNCc1cc(S(=O)(=O)c2cccnc2)c(-c2cccnc2F)s1` [Example 65, 1-[5-(2-fluoropyridin-3-yl)-4-(pyridin-3-ylsulfonyl)thiophen-2-yl]-N-methylmethanamine] yielded a concentration for half-maximal inhibition (IC50) of 250 nM.
